The target of one assay is T1, KCC4 (Homo sapiens, UniProt Q9Y666).
T1 construct: expressed in transfected cells; host or cells: HEK-293
T1 sequence (Q9Y666 1-1083): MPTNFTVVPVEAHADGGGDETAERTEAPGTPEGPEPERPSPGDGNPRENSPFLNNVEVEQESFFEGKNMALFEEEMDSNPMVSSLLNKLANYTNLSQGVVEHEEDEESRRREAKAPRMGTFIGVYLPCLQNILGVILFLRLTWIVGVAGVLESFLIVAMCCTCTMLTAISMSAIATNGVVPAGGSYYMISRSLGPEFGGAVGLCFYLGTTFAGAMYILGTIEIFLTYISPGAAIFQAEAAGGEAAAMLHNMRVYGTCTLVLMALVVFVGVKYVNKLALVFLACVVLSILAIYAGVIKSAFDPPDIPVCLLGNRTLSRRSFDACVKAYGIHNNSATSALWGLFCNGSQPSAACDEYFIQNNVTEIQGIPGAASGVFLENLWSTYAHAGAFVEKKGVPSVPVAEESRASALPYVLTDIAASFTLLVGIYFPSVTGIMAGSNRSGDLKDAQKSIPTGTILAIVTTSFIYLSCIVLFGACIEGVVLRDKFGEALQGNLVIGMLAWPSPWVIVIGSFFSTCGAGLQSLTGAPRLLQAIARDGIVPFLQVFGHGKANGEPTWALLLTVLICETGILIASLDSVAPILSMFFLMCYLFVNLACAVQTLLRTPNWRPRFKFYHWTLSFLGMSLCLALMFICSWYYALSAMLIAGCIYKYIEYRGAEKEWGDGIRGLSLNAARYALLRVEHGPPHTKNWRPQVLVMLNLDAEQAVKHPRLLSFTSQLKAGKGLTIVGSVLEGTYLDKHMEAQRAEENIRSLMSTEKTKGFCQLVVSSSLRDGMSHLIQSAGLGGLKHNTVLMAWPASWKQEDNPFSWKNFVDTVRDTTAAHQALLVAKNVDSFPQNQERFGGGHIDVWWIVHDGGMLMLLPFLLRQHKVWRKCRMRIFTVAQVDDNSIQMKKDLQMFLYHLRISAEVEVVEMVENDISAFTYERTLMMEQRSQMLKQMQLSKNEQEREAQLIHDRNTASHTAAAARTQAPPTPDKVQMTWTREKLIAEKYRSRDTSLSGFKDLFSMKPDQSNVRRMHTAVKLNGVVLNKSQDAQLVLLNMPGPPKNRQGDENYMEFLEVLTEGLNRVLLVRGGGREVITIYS
The experiment in a line: Tl+ flux assay, HEK-293 cells expressing KCC4. Conditions: read-out: concentration at which effects on KCC4 were seen. It is filed as cell-based. The method, then:
(§1) FLIPR TI Flux assay. HEK-293 cells were washed with HBSS, and then incubated with loading buffer containing TI sensitive fluorescent dye (https://www.moleculardevices.com), 20 μM bumetanide 20 μM ouabain and 2.5 mM probenecid for 1 h at room temperature (RT) under control conditions or with drugs in the dark using a FlexStation 3 microplate reader (Molecular Devices) and imaged […] for 30 min. Stimulus buffer was added containing 5 mM K^+/0.5 mM Tl^+ and cells were imaged every 1.5 over a 190 second time course The initial rate Tl^+ uptake (Relative Fluorescence Units (RFU) per second) was determined following addition of the stimulus buffer as outlined previously (Conway et al., 2017, supra) (Lee et al., 2022, supra).
(§2) Compared to KCC2, effects on KCC3, KCC4, and NKCC1 were only seen at concentrations more than 35-fold that of KCC2 (>100 μM) (FIG. 1G).

In the next assay the target is T2, KCC2-S940A (Homo sapiens, UniProt Q9H2X9, S963A).
T2 construct: expressed in transfected cells; host or cells: HEK-293
T2 sequence (Q9H2X9 1-1116 isoform Q9H2X9-2 S940A): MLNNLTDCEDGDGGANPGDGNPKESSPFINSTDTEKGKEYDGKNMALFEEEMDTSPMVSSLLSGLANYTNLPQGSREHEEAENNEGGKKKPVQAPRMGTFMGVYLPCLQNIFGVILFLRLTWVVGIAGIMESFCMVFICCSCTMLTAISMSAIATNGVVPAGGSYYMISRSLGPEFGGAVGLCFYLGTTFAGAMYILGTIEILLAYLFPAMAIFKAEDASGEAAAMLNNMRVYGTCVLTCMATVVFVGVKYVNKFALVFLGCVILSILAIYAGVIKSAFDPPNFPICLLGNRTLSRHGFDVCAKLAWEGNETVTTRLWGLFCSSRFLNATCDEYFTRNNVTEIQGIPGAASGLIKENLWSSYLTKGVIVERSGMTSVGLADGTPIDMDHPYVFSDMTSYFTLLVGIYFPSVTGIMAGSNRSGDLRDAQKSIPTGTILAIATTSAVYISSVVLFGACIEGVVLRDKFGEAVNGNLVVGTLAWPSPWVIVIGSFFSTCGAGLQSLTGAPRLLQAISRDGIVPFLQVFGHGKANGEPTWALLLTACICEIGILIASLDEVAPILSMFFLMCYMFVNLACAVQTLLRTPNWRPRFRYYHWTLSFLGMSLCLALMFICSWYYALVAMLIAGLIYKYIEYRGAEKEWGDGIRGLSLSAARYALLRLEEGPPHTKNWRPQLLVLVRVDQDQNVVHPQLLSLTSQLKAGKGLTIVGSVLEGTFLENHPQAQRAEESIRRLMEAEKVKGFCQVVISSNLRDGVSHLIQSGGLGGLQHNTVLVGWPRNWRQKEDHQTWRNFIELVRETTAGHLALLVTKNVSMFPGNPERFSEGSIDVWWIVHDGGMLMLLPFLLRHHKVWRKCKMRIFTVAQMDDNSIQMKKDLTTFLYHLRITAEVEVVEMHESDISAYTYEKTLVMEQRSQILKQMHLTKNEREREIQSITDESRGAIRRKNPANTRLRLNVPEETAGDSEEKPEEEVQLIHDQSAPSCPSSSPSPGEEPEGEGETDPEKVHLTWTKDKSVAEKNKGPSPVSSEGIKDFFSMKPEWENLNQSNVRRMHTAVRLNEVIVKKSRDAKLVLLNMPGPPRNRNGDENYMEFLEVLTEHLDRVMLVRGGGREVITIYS
The experiment in a line: Tl+ flux assay, HEK-293 cells expressing KCC2-S940A. In kind it is cell-based. How it is done: as §1, §2

As for `C[C@@H]1CN(c2nc3c(c(Nc4ccc(C5CCCCC5)cc4)n2)COC3)CCO1` [Compound A, (R)—N-(4-cyclohexylphenyl)-2-(2-methylmorpholino)-5,7-dihydrofuro[3,4-d]pyrimidin-4-amine], the EC50 on KCC4 is above 100 µM. The “activity of KCC2-S940A construct” value at KCC2-S940A was “increased the activity”.

(Values after patent publication US20260048062A1, “FUSED AMINO PYRIMIDINE COMPOUNDS FOR TREATMENT OF PSYCHOSIS AND PSYCHOTIC DISORDERS” (Ovid Therapeutics Inc., priority 2024, published 2026).)
